Read-outs that look alike come from different tables or passages of the source.
How the values were obtained:
[1] = system: Primary human umbilical vein endothelial cells (HUVECs); assay: HUVEC cell proliferation (Celltiter 96 AQueous One Solution assay); assay type: cell-based
Description: Primary human umbilical vein endothelial cells (HUVECs) and EGM-2 growth medium were obtained from Cambrex (Walkersville, Md.). The cells were passaged in medium supplemented with 2% fetal calf serum (FCS) in tissue culture flasks at 37° C. and 5% CO2. Subculturing was performed using trypsin when 60-80% confluence was obtained as specified by the supplier.
Cryopreserved ampoules of passage 2 HUVECs were thawed and plated in 96 well tissue culture plates at 5,000 cells/cm^2. […] In short, medium was aspirated from each well and the cells were washed with 200 μl […] (HBSS) from Cambrex warmed to 37° C. 100 μl diluted celltiter solution (15 μl stock+85 μl EGM-2 containing 0.1% FCS) were added to each well and incubated for an additional 4 hours. Optical density was determined by microplate reader using a 530 nm filter after blank subtraction and data presented as OD±standard deviation.
All data are presented as representative experiment done in triplicate. Differences between subsets were analyzed using student t-test in Microsoft Excel. P<0.05 was considered statistically significant.

HUVECs [2] = assay: HUVEC tube formation on matrigel plugs; assay type: cell-based, human; settings: 18 hours, 5% FCS
Description: To investigate the formation of capillary-like structures by HUVECs, the Angiogenesis System Endothelial Cell Tube Formation Assay was purchased from BD Biosciences (San Jose, Calif.) and used according to the manufacturer's protocol. In brief, 100,000 HUVECs were seeded onto rehydrated matrigel plugs in 96 well tissue culture plates in the presence of 5% FCS to induce tube formation. […] After 18 hours the wells were photographed using a Kodak DCS Pro SLR/N digital camera (Rochester, N.Y.) mounted on an inverted microscope. Ethanol treated wells were included to determine if the vehicle had any effects on cell differentiation.

HUVECs [3] = assay: HUVEC scratch migration assay; assay type: cell-based, human; settings: for Mean pixels (gap): 24 hours, diluent control 1264.00
Description: Passage 8 HUVECs, lot number 8750 (obtained from Lonza), were plated in 6-well plates (ICS BioExpress) in endothelial growth medium-2 (EGM-2) complete medium (obtained from Lonza). […] The monolayers were then “scratched” with a 1000 μl pipet tip and washed two times with warm EGM-2 medium. […] The wells were photographed again. The gaps were measured in each photograph using Adobe Photoshop software, and gap measurements are presented as the number of pixels in the gap.

[4] = system: Human Brain Endothelial Cells; assay: TER of endothelial cell monolayers (Example 4), brain; assay type: cell-based; settings: Danazol 1.0 μM, TER measurements/cm^2 of insert, blank subtracted
Description: (§1) […]. Assays were also performed in the same manner using passage 8 human brain endothelial cells and passage 8 human umbilical vein endothelial cells.
(§2) An initial TER measurement was taken for each insert using EVOM^2 voltohmmeter connected to an STX100 electrode (both from World Precision Instruments). Measurements were also taken at 24, 48, 72 and 144 hours. All data are presented as TER measurements/cm^2 of insert with TER of blank inserts subtracted.

[5] = system: Human Umbilical Vein Endothelial Cells; assay: TER of endothelial cell monolayers (Example 4), umbilical vein; assay type: cell-based; settings: Danazol 1.0 μM, TER measurements/cm^2 of insert, blank subtracted
Description: as §1, §2

[6] = system: human renal glomerular microvascular endothelial cells; assay: ECIS resistance (Example 12), glomerular cells; settings: danazol 1 μM alone
[7] = system: human retinal endothelial cells; assay: Actin stress fiber formation (Example 11), retinal cells; settings: for F-actin staining pattern: danazol 1 μM alone
[8] = system: human renal glomerular microvascular endothelial cells; assay: ECIS resistance (Example 13), glomerular cells, medium without dexamethasone
[9] = system: human retinal endothelial cells; assay: TER of retinal endothelial cell monolayers with danazol and steroid receptor antagonists (Example 6); settings: 0.1 μM of each additive, background subtracted, divided by 0.33 cm^2
[10] = Homo sapiens, HUVEC, 24 h, read-out: percent inhibition
[11] = Homo sapiens, HUVEC, 48 h, read-out: percent inhibition
[12] = Homo sapiens, HUVEC, 72 h, read-out: inhibition

C#C[C@]1(O)CC[C@H]2[C@@H]3CCC4=Cc5oncc5C[C@]4(C)[C@H]3CC[C@@]21C [Danazol, 17α-pregna-2,4-dien-20-yno[2,3-d]-isoxazol-17β-ol]
OD ([1]; 0.1 μM danazol, 72 hours, nil wells 1.113±0.054): 0.798±0.037 | OD ([1]; 1 μM danazol, 48 hours, nil 0.629±0.095): 0.378±0.037 | OD ([1]; 1 μM danazol, 72 hours, nil wells 1.113±0.054): 0.484±0.022 | OD ([1]; 10 μM danazol, 24 hours, nil wells 0.414±0.06): 0.288±0.037 | OD ([1]; 10 μM danazol, 48 hours, nil 0.629±0.095): 0.241±0.012 | OD ([1]; 10 μM danazol, 72 hours, nil wells 1.113±0.054): 0.229±0.016 | OD ([1]; 100 μM danazol, 24 hours, nil wells 0.414±0.06): 0.162±0.017 | OD ([1]; 100 μM danazol, 48 hours, nil 0.629±0.095): 0.19±0.033 | OD ([1]; 100 μM danazol, 72 hours, nil wells 1.113±0.054): 0.156±0.018 | effect on cell proliferation ([1]; 100 μM danazol, all time points): complete arrest of cell proliferation | inhibition at 10 µM [1, 10]: 30% | inhibition at 100 µM [1, 10]: 65% | inhibition at 1 µM [1, 11]: 40% | inhibition at 10 µM [1, 11]: 61% | inhibition at 100 µM [1, 11]: 70% | inhibition at 0.1 µM ([1]; Homo sapiens, HUVEC, 72 h): 28% | inhibition at 1 µM [1, 12]: 57% | inhibition at 10 µM [1, 12]: 80% | inhibition at 100 µM [1, 12]: 86% | effect on tube formation (HUVECs [2]; 1 μM): no effect on tube formation | effect on tube formation (HUVECs [2]; 10 μM): no effect on tube formation | effect on tube formation (HUVECs [2]; 50 μM): effective inhibitor of tube formation | Mean pixels (gap) (HUVECs [3]; Danazol 10 μM): 1004.00 pixels | Mean pixels (gap) (HUVECs [3]; Danazol 25 μM): 1184.00 pixels | Mean pixels (gap) (HUVECs [3]; Danazol 50 μM): 895.33 pixels | Mean pixels (gap) (HUVECs [3]; Danazol 75 μM): 317.33 pixels | Mean pixels (gap) (HUVECs [3]; Danazol 100 μM): 178.67 pixels | inhibition at 10 µM (HUVECs [3]; Homo sapiens, HUVEC, 24 h): 21.1% | inhibition at 25 µM (HUVECs [3]; Homo sapiens, HUVEC, 24 h): 5.5% | inhibition at 50 µM (HUVECs [3]; Homo sapiens, HUVEC, 24 h): 27.6% | inhibition at 75 µM (HUVECs [3]; Homo sapiens, HUVEC, 24 h): 74.6% | inhibition at 100 µM (HUVECs [3]; Homo sapiens, HUVEC, 24 h): 85.9% | TER at 0 Hours ([4]; None 41.4): 32.3 | TER at 24 Hours ([4]; None 115.7): 139.9 | TER at 144 Hours ([4]; None 151.5): 125.8 | TER at 72 Hours ([4]; None 154.0): 149.5 | TER at 48 Hours ([4]; None 176.3): 188.4 | TER at 0 Hours ([5]; None 82.3): 70.2 | TER at 24 Hours ([5]; None 217.2): 246.0 | TER at 72 Hours ([5]; None 226.8): 270.7 | TER at 144 Hours ([5]; None 227.3): 286.4 | TER at 48 Hours ([5]; None 276.3): 364.1 | period of greatest increase of ECIS [6]: 60 to 90 h | F-actin staining pattern ([7]; 15 minutes): perinuclear staining | F-actin staining pattern ([7]; 3 hours): diffuse staining throughout the cells with ruffled edges on many of the cells | F-actin staining pattern ([7]; 24 hours): staining similar to untreated controls | effect on S1P-induced cortical actin rings ([7]; danazol 1 μM with S1P 1 μM): seemed to enhance the cortical rings at 3 hours | effect on TNFα-induced stress fibers ([7]; danazol 1 μM with TNFα 1 ng/ml, all times): decreased the stress fiber formation and/or the thickness of the fibers at all times | persistence of increased ECIS ([8]; danazol 1 μM alone): about 90 hours | start of increase of ECIS compared to untreated cells ([8]; danazol 1 μM alone): about 3 hours | enhancement of ECIS (TER) compared to dexamethasone ([8]; danazol 1 μM versus dexamethasone 1 μM): not as great | TER at 30 minutes ([9]; None 216.22): 255.26 | TER at 120 minutes ([9]; None 234.23): 249.35 | TER at 60 minutes ([9]; None 249.25): 267.27 | TER at 24 Hours ([9]; None 312.31): 366.37

— patent US20130005699A1, “METHODS AND PRODUCTS FOR TREATMENT OF DISEASES” (DMI ACQUISITION CORP., priority 2009, published 2013)
